According to patent US10646594B2, “Deuterated metabolic water precursor for detecting and treating diseased tissue” (CASE WESTERN RESERVE UNIVERSITY, priority 2009, dated 2020):

Legend:
[1] = DMR measurement of deuterated glucose metabolism in mice; type: in vivo, mice (C57/BL6); conditions: mice injected iv or ip with 8.9 mg deuterated glucose, whole-body DMR spectrum
Protocol: (§1) DMR measurements (AQ 0.2s; TR 0.3s; NS 128; LB 30; 38s/spectrum) were performed at 9.4 T on a wide bore (89 mm) Bruker Avance microimager equipped with a multinuclear probe. A set of experiments was performed on three male mice (C57/BL6) and another set, on Tenebrio molitor larvae. Mouse 1 (25 g), was injected iv with 8.9 mg deuterated glucose (ISOTEC) dissolved in 0.4 ml saline solution; it was sacrificed after 1.5 hr and, after dissection, its whole body (except fur and skin) was placed in a 20 mm NMR tube for running the DMR spectrum (shown in FIG. 4, upper trace). Mouse 2, (32 g) injected ip with the same amount of glucose-d7 as mouse 1 was sacrificed after 3.5 hr, and yielded the spectrum seen in the same FIG. 4, second trace. Tenebrio molitor larvae were starved for several days, then placed in a 20 mm NMR tube together with food consisting of 0.4 g bran wetted with an aqueous solution of deuterated glucose.

[2] = DMR measurement of deuterated glucose metabolism in Tenebrio molitor larvae; type: in vivo; conditions: starved larvae fed bran wetted with aqueous deuterated glucose, 2H spectrum
Protocol: as §1
In our approach, the excellent tracer quality of deuterium (natural abundance 0.015%) is combined with the fact that only two well separated peaks are to be measured; that of nascent metabolic water, and that of the aliphatic chain of fatty acids. Thus, in spite of their large line widths (100-230 Hz) due to the electric quadrupole moment and unfavorable correlation times, the spectra can be interpreted in a quantitative manner. […]

[3] = test system: malignant cells; conditions: Kushner et al. 1999; cited from earlier work

SMILES	consumption of deuterated glucose ([1]; sacrificed after 1.5 hr or 3.5 hr)	metabolic fate of deuterated glucose (metabolic water / fat) [1]	incorporation of D-label into fat [2]	metabolism of glucose into deuterated water ([2]; end of the experiment)	toxicity to malignant cells compared with normal animal cells [3]
[2H]C1(O)O[C@]([2H])(C([2H])([2H])O)[C@@]([2H])(O)[C@]([2H])(O)[C@@]1([2H])O (stereo partly drawn) [deuterated glucose, D-7 Glucose[1,2,3,4,5,6,6-2H7]]	all deuterated glucose was consumed by the mice	most of it provided protons for the formation of metabolic water, part of it was metabolized into fat	did not incorporate a visible amount of D-label into fat	all glucose was metabolized into deuterated water	–
[2H]O[2H] [D2O]	–	–	–	–	more toxic to malignant cells than normal animal cells
